Values quoted from earlier work in patent US6884793B2, “Combination preparation for contraception based on natural estrogens” (Jenapharm GmbH & Co. KG, priority 1995, dated 2005).

Test system: human liver Cytochrome P-450

For `C#C[C@]1(O)CC[C@H]2[C@@H]3CCc4cc(O)ccc4[C@H]3CC[C@@]21C` [Ethinyl estradiol, ethinyl estradiol], the “effect on Cytochrome P-450 system” value is given as “suicidal blockage of the Cytochrome P-450 system”.
